The values below come from patent publication US11174251B2, “Compositions and methods for inhibition of the JAK pathway” (Rigel Pharmaceuticals, Inc., priority 2010, dated 2021).

Molecules are shown by their SMILES. Where a name gives a salt, the structure may show the parent alone. Bounds are passed on as bounds.

This assay addresses T1, JAK3 (Homo sapiens, UniProt P52333).
T1 construct: The Ramos B-cell line was acquired from ATCC (ATCC Catalog No. CRL-1596); host or cells: Ramos B-cell line (human)
T1 sequence (P52333 1-1124): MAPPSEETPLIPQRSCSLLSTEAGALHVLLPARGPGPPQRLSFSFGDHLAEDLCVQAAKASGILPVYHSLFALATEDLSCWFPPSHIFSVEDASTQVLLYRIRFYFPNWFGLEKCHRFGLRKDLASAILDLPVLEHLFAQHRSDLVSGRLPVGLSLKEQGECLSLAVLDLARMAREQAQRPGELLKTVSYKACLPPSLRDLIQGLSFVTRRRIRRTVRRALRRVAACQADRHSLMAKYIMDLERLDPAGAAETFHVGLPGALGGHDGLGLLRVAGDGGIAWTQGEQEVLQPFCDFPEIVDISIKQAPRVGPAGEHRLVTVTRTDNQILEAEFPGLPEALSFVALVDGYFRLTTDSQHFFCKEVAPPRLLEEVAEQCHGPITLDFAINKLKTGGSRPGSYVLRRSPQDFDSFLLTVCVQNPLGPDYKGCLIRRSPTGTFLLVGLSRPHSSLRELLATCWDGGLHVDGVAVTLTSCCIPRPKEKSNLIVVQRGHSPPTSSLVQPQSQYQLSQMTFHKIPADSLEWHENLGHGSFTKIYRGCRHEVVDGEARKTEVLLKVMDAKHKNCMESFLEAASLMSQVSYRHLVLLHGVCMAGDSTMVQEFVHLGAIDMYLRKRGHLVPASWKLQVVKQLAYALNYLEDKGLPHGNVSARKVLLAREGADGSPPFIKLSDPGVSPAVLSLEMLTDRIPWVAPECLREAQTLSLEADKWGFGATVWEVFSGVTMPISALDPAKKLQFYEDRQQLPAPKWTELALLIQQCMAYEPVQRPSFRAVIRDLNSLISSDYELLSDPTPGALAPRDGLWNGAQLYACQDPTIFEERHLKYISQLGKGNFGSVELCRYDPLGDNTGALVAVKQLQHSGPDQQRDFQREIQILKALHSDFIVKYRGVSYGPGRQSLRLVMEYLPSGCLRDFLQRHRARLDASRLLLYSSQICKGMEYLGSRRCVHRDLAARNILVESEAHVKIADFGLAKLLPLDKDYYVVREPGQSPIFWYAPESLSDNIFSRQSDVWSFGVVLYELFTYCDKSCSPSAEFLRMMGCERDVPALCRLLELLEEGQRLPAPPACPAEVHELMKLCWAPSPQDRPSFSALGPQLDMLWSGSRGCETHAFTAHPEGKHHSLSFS
Put plainly: Assay for CD23 expression on Ramos B-cells stimulated by IL-4 (Table IV: ability to inhibit JAK3 activity). The assay is classed as cell-based. To be noted: tested under conditions described in Example 3 (so in the source). The text has this: One means of assaying for such inhibition is detection of the effect of the 2,4-pyrimidinediamine compounds on the upregulation of downstream gene products. In the Ramos/IL4 assay, B-cells are stimulated with the cytokine Interleukin-4 (IL-4) leading to the activation of the JAK/Stat pathway through phosphorylation of the JAK family kinases, JAK1 and JAK3, which in turn phosphorylate and activate the transcription factor Stat-6. […] To study the effect of inhibitors (for example, the 2,4-substituted pyrimindinediamine compounds described herein) on the JAK1 and JAK3 kinases, human Ramos B cells are stimulated with human IL-4. 20 to 24 hours post stimulation, cells are stained for upregulation of CD23 and analyzed using FACS.
B-cells stimulated with cytokine Interleukin-4 (IL-4) activate the JAK/Stat pathway through phosphorylation of the JAK family kinases, JAK-1 and JAK-3, which in turn phosphorylate and activate the transcription factor Stat-6. […] To study the effect of inhibitors on the JAK family kinases, human Ramos B cells were stimulated with human IL-4 and the surface expression of CD23 was measured.
The day before the experiment, Ramos B-cells were diluted to 3.5×10^5 cells/mL to ensure that they were in a logarithmic growth phase.
Cells were spun down and suspended in RPMI with 5% serum. 5×10^4 cells were used per point in a 96-well tissue culture plate. Cells were pre-incubated with compound or DMSO (Sigma-Aldrich, St. Louis, Mo., Cat No. D2650) vehicle control for 1 hour in a 37° C. incubator. Cells were then stimulated with IL-4 (Peprotech Inc., Rocky Hill, N.J., Cat No. 200-04) for a final concentration of 50 units/mL for 20-24 hours. […] Detection was performed using a BD LSR I System Flow Cytometer, purchased from Becton Dickinson Biosciences of San Jose, Calif.
The compound designations in Table IV are consistent with those of Tables I-II above.
Consider `Cc1cnc(Nc2ccc(N(C)C)cc2)nc1Nc1ccc2oc(=O)[nH]c2c1` [Compound I-25, 5-[2-(4-Dimethylamino-phenylamino)-5-methyl-pyrimidin-4-ylamino]-3H-benzooxazol-2-one], for which the IC50 (usually the midpoint of a concentration-inhibition curve) is less than 500 nM.
With `Cc1cnc(N(C)c2ccccc2)nc1Nc1ccc2oc(=O)[nH]c2c1` [Compound I-26, 5-[5-Methyl-2-(methyl-phenyl-amino)-pyrimidin-4-ylamino]-3H-benzooxazol-2-one], the IC50 was 500 to 5000 nM.
Molecule `COc1c(Br)ccc(Nc2ncc(C)c(Nc3ccc4oc(=O)[nH]c4c3)n2)c1F` [Compound I-27, 5-[2-(4-Bromo-2-fluoro-3-methoxy-phenylamino)-5-methyl-pyrimidin-4-ylamino]-3H-benzooxazol-2-one] displayed an IC50 of less than 500 nM.
Then `Cc1cnc(Nc2ccc(Br)cc2F)nc1Nc1ccc2oc(=O)[nH]c2c1` [Compound I-28, 5-[2-(4-Bromo-2-fluoro-phenylamino)-5-methyl-pyrimidin-4-ylamino]-3H-benzooxazol-2-one], with less than 500 nM.
For `COc1c(C)ccc(Nc2ncc(C)c(Nc3ccc4oc(=O)[nH]c4c3)n2)c1F` [Compound I-29, 5-[2-(2-Fluoro-3-methoxy-4-methyl-phenylamino)-5-methyl-pyrimidin-4-ylamino]-3H-benzooxazol-2-one trifluoroacetate salt], the IC50 is less than 500 nM.
Then `Cc1cnc(Nc2ccc(CC=O)cc2)nc1Nc1ccc2oc(=O)[nH]c2c1` [Compound I-30, {4-[5-Methyl-4-(2-oxo-2,3-dihydro-benzooxazol-5-ylamino)-pyrimidin-2-ylamino]-phenyl}-acetaldehyde], with less than 500 nM; and `C#Cc1cccc(Nc2ncc(C)c(Nc3ccc4oc(=O)[nH]c4c3)n2)c1` [Compound I-31, 5-[2-(3-Ethynyl-phenylamino)-5-methyl-pyrimidin-4-ylamino]-3H-benzooxazol-2-one], with less than 500 nM.
Then `COc1cc(Nc2ncc(Cl)c(Nc3ccc4oc(=O)[nH]c4c3)n2)ccc1C` [Compound I-32, 5-(5-chloro-2-(3-methoxy-4-methylphenylamino)pyrimidin-4-ylamino)benzo[d]oxazol-2(3H)-one trifluoroacetate salt], with less than 500 nM.
Then `Cc1ccc(Nc2ncc(Cl)c(Nc3ccc4oc(=O)[nH]c4c3)n2)cc1N(C)C` [Compound I-33, 5-(5-chloro-2-(3-(dimethylamino)-4-methylphenylamino)pyrimidin-4-ylamino)benzo[d]oxazol-2(3H)-one], with less than 500 nM; and `COc1ccc(Nc2ncc(C)c(Nc3ccc4oc(=O)[nH]c4c3)n2)cc1N` [Compound I-34, 5-[2-(3-Amino-4-methoxy-phenylamino)-5-methyl-pyrimidin-4-ylamino]-3H-benzooxazol-2-one], with less than 500 nM.
`[2H]C([2H])([2H])c1c(C)cc(Nc2ncc(C)c(Nc3ccc4oc(=O)[nH]c4c3)n2)cc1C` [Compound I-35, 5-[5-Methyl-2-(3,5-dimethyl-4-d3-methyl-phenylamino)-pyrimidin-4-ylamino]-3H-benzooxazol-2-one trifluoroacetate salt] gave an IC50 of less than 500 nM.
Then `[2H]C([2H])([2H])c1c(C)cc(Nc2ncc(Cl)c(Nc3ccc4oc(=O)[nH]c4c3)n2)cc1C` [Compound I-36, 5-(5-chloro-2-(3,5-dimethyl-4-d3-methyl)phenylamino)pyrimidin-4-ylamino)benzo[d]oxazol-2(3H)-one trifluoroacetate salt], with less than 500 nM; and `[2H]C([2H])([2H])c1c(C)cc(Nc2ncc(F)c(Nc3ccc4oc(=O)[nH]c4c3)n2)cc1C` [Compound I-37, 5-(5-fluoro-2-(3,5-dimethyl-4-d3-methyl)phenylamino)pyrimidin-4-ylamino)benzo[d]oxazol-2(3H)-one trifluoroacetate salt], with greater than 10000 nM; and `[2H]C([2H])([2H])c1c(C)cc(Nc2nccc(Nc3ccc4oc(=O)[nH]c4c3)n2)cc1C` [Compound I-38, 5-(2-(3,5-dimethyl-4-d3-methyl)phenylamino)pyrimidin-4-ylamino)benzo[d]oxazol-2(3H)-one trifluoroacetate salt], with less than 500 nM.
To `COC(=O)c1cnc(Nc2ccccc2)nc1Nc1ccc2oc(=O)[nH]c2c1` [Compound I-39, 4-(2-oxo-2,3-dihydro-benzooxazol-5-ylamino)-2-phenylamino-pyrimidine-5-carboxylic acid methyl ester trifluoroacetate salt] belongs greater than 10000 nM; to `COC(=O)c1cnc(Nc2cc(C)c(C)c(C)c2)nc1Nc1ccc2oc(=O)[nH]c2c1` [Compound I-40, 4-(2-Oxo-2,3-dihydro-benzooxazol-5-ylamino)-2-(3,4,5-trimethyl-phenylamino)-pyrimidine-5-carboxylic acid methyl ester trifluoroacetate salt], less than 500 nM.
As to `O=c1[nH]c2cc(Nc3nc(Nc4ccccc4)ncc3[N+](=O)[O-])ccc2o1` [Compound I-41, 5-(5-nitro-2-(phenylamino)pyrimidin-4-ylamino)benzo[d]oxazol-2(3H)-one trifluoroacetate salt], the IC50 was in the range of 5000 to 10000 nM.
`Cc1cc(Nc2ncc([N+](=O)[O-])c(Nc3ccc4oc(=O)[nH]c4c3)n2)cc(C)c1C` [Compound I-42, 5-(5-nitro-2-(3,4,5-trimethylphenylamino)pyrimidin-4-ylamino)benzo[d]oxazol-2(3H)-one trifluoroacetate salt] came in with an IC50 greater than 10000 nM.
The molecule `COc1c(F)ccc(Nc2ncc([N+](=O)[O-])c(Nc3ccc4oc(=O)[nH]c4c3)n2)c1F` [Compound I-43, 5-(2-(2,4-difluoro-3-methoxyphenylamino)-5-nitropyrimidin-4-ylamino)benzo[d]oxazol-2(3H)-one trifluoroacetate salt] returned an IC50 greater than 10000 nM.
Then `COc1cc(Nc2ncc([N+](=O)[O-])c(Nc3ccc4oc(=O)[nH]c4c3)n2)ccc1C` [Compound I-44, 5-(2-(3-methoxy-4-methylphenylamino)-5-nitropyrimidin-4-ylamino)benzo[d]oxazol-2(3H)-one trifluoroacetate salt], with greater than 10000 nM.
In turn, `Cc1ccc(Nc2ncc([N+](=O)[O-])c(Nc3ccc4oc(=O)[nH]c4c3)n2)cc1N(C)C` [Compound I-45, 5-(2-(3-(dimethylamino)-4-methylphenylamino)-5-nitropyrimidin-4-ylamino)benzo[d]oxazol-2(3H)-one trifluoroacetate salt] registered an IC50 greater than 10000 nM.
`COc1cc(Nc2ncc([N+](=O)[O-])c(Nc3ccc4oc(=O)[nH]c4c3)n2)cc(C(F)(F)F)c1` [Compound I-47, 5-(2-(3-methoxy-5-(trifluoromethyl)phenylamino)-5-nitropyrimidin-4-ylamino)benzo[d]oxazol-2(3H)-one trifluoroacetate salt] registered an IC50 greater than 10000 nM.
To `COC(=O)c1cnc(Nc2ccc(F)c(OC)c2F)nc1Nc1ccc2oc(=O)[nH]c2c1` [Compound I-48, 2-(2,4-Difluoro-3-methoxy-phenylamino)-4-(2-oxo-2,3-dihydro-benzooxazol-5-ylamino)-pyrimidine-5-carboxylic acid methyl ester trifluoroacetate salt] belongs greater than 10000 nM.
